Test results published in patent US8822503B2, “2-pyridone compounds” (Taisho Pharmaceutical Co., Ltd, priority 2009, dated 2014).
pEC50: −log10 of the molar value.

biological target: T1, human liver GK (Homo sapiens, UniProt P35557); test: GK activation test; format: biochemical; conditions: test compound concentration needed to activate 50% of maximum activation ability; 4 mM 14C-labeled glucose, 2 mM ATP, room temperature, 20 minutes
T1 construct: GST (glutathione S-transferase) (N); made in house; host or cells: E. coli
T1 sequence (P35557 1-466 isoform P35557-2): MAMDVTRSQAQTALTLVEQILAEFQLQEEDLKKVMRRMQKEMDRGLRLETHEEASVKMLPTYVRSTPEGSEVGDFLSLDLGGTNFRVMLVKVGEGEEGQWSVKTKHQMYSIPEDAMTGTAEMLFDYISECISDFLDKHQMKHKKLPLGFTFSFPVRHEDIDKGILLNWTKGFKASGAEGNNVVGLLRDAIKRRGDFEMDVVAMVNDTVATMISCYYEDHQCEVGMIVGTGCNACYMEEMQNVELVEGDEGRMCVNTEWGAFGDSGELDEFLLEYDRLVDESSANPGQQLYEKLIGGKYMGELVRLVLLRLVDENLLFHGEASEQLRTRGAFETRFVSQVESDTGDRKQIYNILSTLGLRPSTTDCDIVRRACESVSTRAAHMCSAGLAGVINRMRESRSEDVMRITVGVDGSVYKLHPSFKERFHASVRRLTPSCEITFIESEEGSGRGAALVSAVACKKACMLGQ
Outline: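 GST-tagged human liver GK from E. coli (0.24 μg/well) with 4 mM 14C-glucose, 2 mM ATP in Hepes-KOH pH 7.1, KCl, MgCl2, DTT, 1% DMSO, 20 min room temperature. Labeled glucose 6-phosphate captured on anion resin, eluted and counted. EC50 = concentration giving half of maximal activation.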

Q: With `CC(C)(C)c1ccc(/C(=C\[C@H]2CCC(=O)N2)c2ccc(CCC3CCCCC3)c(=O)[nH]2)cc1` [Example 4-195, 6-{(E)-1-(4-tert-Butylphenyl)-2-[(2R)-5-oxopyrrolidin-2-yl]ethenyl}-3-(2-cyclohexylethyl)pyridin-2(1H)-one] as the compound, how does the pEC50 read?
A: The pEC50 was 6.30 to 8.00.

Q: `CC(C)(C)c1ccc(/C(=C\[C@H]2CCC(=O)N2)c2ccc(CCc3ccccc3)c(=O)[nH]2)cc1` [Example 4-196, 6-{(E)-1-(4-tert-Butylphenyl)-2-[(2R)-5-oxopyrrolidin-2-yl]ethenyl}-3-(2-phenylethyl)pyridin-2(1H)-one] was tested. Which pEC50 did it give?
A: Its pEC50 is 6.30 to 8.00.

Q: How did the pEC50 turn out when `CC(C)(C)c1ccc(/C(=C\[C@H]2CCC(=O)N2)c2ccc(CCCc3ccccc3)c(=O)[nH]2)cc1` [Example 4-197, 6-{(E)-1-(4-tert-Butylphenyl)-2-[(2R)-5-oxopyrrolidin-2-yl]ethenyl}-3-(3-phenylpropyl)pyridin-2(1H)-one] was run?
A: Its pEC50 is 5.52 to 6.30.

Q: `CC(C)(C)c1ccc(/C(=C\[C@H]2CCC(=O)N2)c2ccc(CCCO)c(=O)[nH]2)cc1` [Example 4-198, 6-{(E)-1-(4-tert-Butylphenyl)-2-[(2R)-5-oxopyrrolidin-2-yl]ethenyl}-3-(3-hydroxypropyl)pyridin-2(1H)-one] was tested. Which pEC50 did it give?
A: The pEC50 was 6.30 to 8.00.

Q: `O=C1CC[C@H](/C=C(\c2ccc(Cl)cc2)c2ccc(CCCCO)c(=O)[nH]2)N1` [Example 4-199, 6-{(E)-1-(4-Chlorophenyl)-2-[(2R)-5-oxopyrrolidin-2-yl]ethenyl}-3-(4-hydroxybutyl)pyridin-2(1H)-one] was tested. Which pEC50 did it give?
A: The pEC50 was 5.52 to 6.30.

Q: How did the pEC50 turn out when `O=C1CC[C@H](/C=C(\c2ccc(C(F)(F)F)cc2)c2ccc(CCCCO)c(=O)[nH]2)N1` [Example 4-200, 3-(4-Hydroxybutyl)-6-{(E)-2-[(2R)-5-oxopyrrolidin-2-yl]-1-[4-(trifluoromethyl)phenyl]ethenyl}pyridin-2(1H)-one] was run?
A: The pEC50 was 5.52 to 6.30.

Q: `CC(C)(C)c1ccc(/C(=C\[C@H]2CCC(=O)N2)c2ccc(CCC(N)=O)c(=O)[nH]2)cc1` [Example 4-201, 3-(6-{(E)-1-(4-tert-Butylphenyl)-2-[(2R)-5-oxopyrrolidin-2-yl]ethenyl}-2-oxo-1,2-dihydropyridin-3-yl)propanamide] was tested. Which pEC50 did it give?
A: Its pEC50 is 5.52 to 6.30.

Q: How did the pEC50 turn out when `CC(C)(C)c1ccc(/C(=C\[C@H]2CCC(=O)N2)c2ccc(C#N)c(=O)[nH]2)cc1` [Example 4-202, 6-{(E)-1-(4-tert-Butylphenyl)-2-[(2R)-5-oxopyrrolidin-2-yl]ethenyl}-2-oxo-1,2-dihydropyridine-3-carbonitrile] was run?
A: The pEC50 was 5.52 to 6.30.

Q: `CC(C)(C)c1ccc(C(=C[C@H]2CCC(=O)N2)c2ccc(C3(O)CCC3)c(=O)[nH]2)cc1` [Example 4-203, 6-{1-(4-tert-Butylphenyl)-2-[(2R)-5-oxopyrrolidin-2-yl]ethenyl}-3-(1-hydroxycyclobutyl)pyridin-2(1H)-one] was tested. Which pEC50 did it give?
A: The pEC50 was 5.00 to 5.52.

Q: With `CC(C)(C)c1ccc(/C(=C\[C@H]2CCC(=O)N2)c2ccc(Cc3ccccc3)c(=O)[nH]2)cc1` [Example 4-205, 3-Benzyl-6-{(E)-1-(4-tert-butylphenyl)-2-[(2R)-5-oxopyrrolidin-2-yl]ethenyl}pyridin-2(1H)-one] as the compound, how does the pEC50 read?
A: The pEC50 was 6.30 to 8.00.

Q: How did the pEC50 turn out when `CSc1ccc(/C(=C/[C@H]2CCC(=O)N2)c2ccc(C(C)(C)C)cc2)[nH]c1=O` [Example 4-206, 6-{(E)-1-(4-tert-Butylphenyl)-2-[(2R)-5-oxopyrrolidin-2-yl]ethenyl}-3-(methylsulfanyl)pyridin-2(1H)-one] was run?
A: Its pEC50 is 6.30 to 8.00.

Q: With `O=C1CC[C@H](C[C@H](c2ccc(Cl)c(Cl)c2)c2ccc(C3CC3)c(=O)[nH]2)N1` [Example 4-207, 3-Cyclopropyl-6-{(1R)-1-(3,4-dichlorophenyl)-2-[(2R)-5-oxopyrrolidin-2-yl]ethyl}pyridin-2(1H)-one] as the compound, how does the pEC50 read?
A: Its pEC50 is 6.30 to 8.00.

Q: How did the pEC50 turn out when `O=C1CC[C@H](C[C@@H](c2ccc(Cl)c(Cl)c2)c2ccc(C3CC3)c(=O)[nH]2)N1` [Example 4-208, 3-Cyclopropyl-6-{(1S)-1-(3,4-dichlorophenyl)-2-[(2R)-5-oxopyrrolidin-2-yl]ethyl}pyridin-2(1H)-one] was run?
A: The pEC50 was 5.00 to 5.52.

Q: `CCOc1ccc(C(C[C@H]2CCC(=O)N2)c2ccc(Cl)c(=O)[nH]2)cc1F` (stereo partly drawn) [Example 4-241, 3-Chloro-6-{1-(4-ethoxy-3-fluorophenyl)-2-[(2R)-5-oxopyrrolidin-2-yl]ethyl}pyridin-2(1H)-one] was tested. Which pEC50 did it give?
A: The pEC50 was 5.00 to 5.52.

Q: How did the pEC50 turn out when `Cc1ccc(/C(=C\[C@H]2CCC(=O)N2)c2ccc(Cl)c(=O)[nH]2)cc1` [Example 4-256, 3-Chloro-6-{(E)-1-(4-methylphenyl)-2-[(2R)-5-oxopyrrolidin-2-yl]ethenyl}pyridin-2(1H)-one] was run?
A: Its pEC50 is 5.52 to 6.30.

Q: `CCc1ccc(/C(=C\[C@H]2CCC(=O)N2)c2ccc(Cl)c(=O)[nH]2)cc1Cl` [Example 4-257, 3-Chloro-6-{(E)-1-(3-chloro-4-ethylphenyl)-2-[(2R)-5-oxopyrrolidin-2-yl]ethenyl}pyridin-2(1H)-one] was tested. Which pEC50 did it give?
A: The pEC50 was 6.30 to 8.00.

Q: With `CC(C)Oc1ccc(/C(=C\[C@H]2CCC(=O)N2)c2ccc(C3CC3)c(=O)[nH]2)cc1Cl` [Example 4-258, 6-{(E)-1-[3-Chloro-4-(propan-2-yloxy)phenyl]-2-[(2R)-5-oxopyrrolidin-2-yl]ethenyl}-3-cyclopropylpyridin-2(1H)-one] as the compound, how does the pEC50 read?
A: Its pEC50 is 6.30 to 8.00.

Q: With `O=C1CC[C@H](/C=C(\c2ccc(C(F)(F)F)cc2)c2ccc(C(F)(F)F)c(=O)[nH]2)N1` [Example 4-259, 6-{(E)-2-[(2R)-5-Oxopyrrolidin-2-yl]-1-[4-(trifluoromethyl)phenyl]ethenyl}-3-(trifluoromethyl)pyridin-2(1H)-one] as the compound, how does the pEC50 read?
A: The pEC50 was 5.52 to 6.30.

Q: How did the pEC50 turn out when `COc1ccc(/C(=C\[C@H]2CCC(=O)N2)c2ccc(C3CC3)c(=O)[nH]2)cc1Cl` [Example 4-260, 6-{(E)-1-(3-Chloro-4-methoxyphenyl)-2-[(2R)-5-oxopyrrolidin-2-yl]ethenyl}-3-cyclopropylpyridin-2(1H)-one] was run?
A: Its pEC50 is 6.30 to 8.00.

Q: With `O=C1CC[C@H](/C=C(\c2cccc(C(F)(F)F)c2)c2ccc(Cl)c(=O)[nH]2)N1` [Example 4-261, 3-Chloro-6-{(E)-2-[(2R)-5-oxopyrrolidin-2-yl]-1-[3-(trifluoromethyl)phenyl]ethenyl}pyridin-2(1H)-one] as the compound, how does the pEC50 read?
A: Its pEC50 is 5.00 to 5.52.

Q: With `O=C1CC[C@H](/C=C(/c2ccc(Cl)c(=O)[nH]2)c2ccc(C(F)(F)F)cc2F)N1` [Example 4-262, 3-Chloro-6-{(E)-1-[2-fluoro-4-(trifluoromethyl)phenyl]-2-[(2R)-5-oxopyrrolidin-2-yl]ethenyl}pyridin-2(1H)-one] as the compound, how does the pEC50 read?
A: The pEC50 was 5.52 to 6.30.

Q: With `CC1(C)CCc2cc(/C(=C\[C@H]3CCC(=O)N3)c3ccc(Cl)c(=O)[nH]3)ccc2O1` [Example 4-263, 3-Chloro-6-{(E)-1-(2,2-dimethyl-3,4-dihydro-2H-chromen-6-yl)-2-[(2R)-5-oxopyrrolidin-2-yl]ethenyl}pyridin-2(1H)-one] as the compound, how does the pEC50 read?
A: The pEC50 was 5.52 to 6.30.

Q: `COCCCc1ccc(/C(=C\[C@H]2CCC(=O)N2)c2ccc(Cl)c(=O)[nH]2)cc1` [Example 4-264, 3-Chloro-6-{(E)-1-[4-(3-methoxypropyl)phenyl]-2-[(2R)-5-oxopyrrolidin-2-yl]ethenyl}pyridin-2(1H)-one] was tested. Which pEC50 did it give?
A: Its pEC50 is 5.52 to 6.30.

Q: How did the pEC50 turn out when `Cc1cc(/C(=C\[C@H]2CCC(=O)N2)c2ccc(C3CC3)c(=O)[nH]2)ccc1C(F)(F)F` [Example 4-265, 3-Cyclopropyl-6-{(E)-1-[3-methyl-4-(trifluoromethyl)phenyl]-2-[(2R)-5-oxopyrrolidin-2-yl]ethenyl}pyridin-2(1H)-one] was run?
A: The pEC50 was 6.30 to 8.00.

Q: How did the pEC50 turn out when `O=C1CC[C@H](/C=C(/c2ccc(C3CC3)c(=O)[nH]2)c2ccc(Cl)cc2F)N1` [Example 4-266, 6-{(E)-1-(4-Chloro-2-fluorophenyl)-2-[(2R)-5-oxopyrrolidin-2-yl]ethenyl}-3-cyclopropylpyridin-2(1H)-one] was run?
A: Its pEC50 is 6.30 to 8.00.

Q: How did the pEC50 turn out when `O=C1CC[C@H](/C=C(/c2ccc(C3CC3)c(=O)[nH]2)c2ccc(C(F)(F)F)cc2F)N1` [Example 4-267, 3-Cyclopropyl-6-{(E)-1-[2-fluoro-4-(trifluoromethyl)phenyl]-2-[(2R)-5-oxopyrrolidin-2-yl]ethenyl}pyridin-2(1H)-one] was run?
A: Its pEC50 is 6.30 to 8.00.

Q: With `O=C1CC[C@H](/C=C(\c2ccc(C3CC3)cc2)c2ccc(C3CC3)c(=O)[nH]2)N1` [Example 4-268, 3-Cyclopropyl-6-{(E)-1-(4-cyclopropylphenyl)-2-[(2R)-5-oxopyrrolidin-2-yl]ethenyl}pyridin-2(1H)-one] as the compound, how does the pEC50 read?
A: Its pEC50 is 6.30 to 8.00.

Q: With `O=C1CC[C@H](/C=C(\c2ccc(OC3CC3)c(Cl)c2)c2ccc(C3CC3)c(=O)[nH]2)N1` [Example 4-269, 6-{(E)-1-[3-Chloro-4-(cyclopropyloxy)phenyl]-2-[(2R)-5-oxopyrrolidin-2-yl]ethenyl}-3-cyclopropylpyridin-2(1H)-one] as the compound, how does the pEC50 read?
A: Its pEC50 is 6.30 to 8.00.

Q: `O=C1CC[C@H](/C=C(\c2ccc(OCC(F)(F)F)c(Cl)c2)c2ccc(C3CC3)c(=O)[nH]2)N1` [Example 4-270, 6-{(E)-1-[3-Chloro-4-(2,2,2-trifluoroethoxy)phenyl]-2-[(2R)-5-oxopyrrolidin-2-yl]ethenyl}-3-cyclopropylpyridin-2(1H)-one] was tested. Which pEC50 did it give?
A: Its pEC50 is 6.30 to 8.00.

Q: With `CCc1ccc(/C(=C\[C@H]2CCC(=O)N2)c2ccc(C3CC3)c(=O)[nH]2)cc1Cl` [Example 4-271, 6-{(E)-1-(3-Chloro-4-ethylphenyl)-2-[(2R)-5-oxopyrrolidin-2-yl]ethenyl}-3-cyclopropylpyridin-2(1H)-one] as the compound, how does the pEC50 read?
A: Its pEC50 is 6.30 to 8.00.
